From patent US11285160B2, “Pharmaceutical composition and method for treatment of non-alcoholic fatty liver disease” (MITSUBISHI TANABE PHARMA CORPORATION, priority 2016, dated 2022)

Assays:
[1] = system: UGT enzymes (Uridine diphosphate glucuronosyltransferase); assay: Main metabolic pathway of compound (I); assay type: in vitro ADME; conditions: estimated
CDAA diet-loaded rats = assay: Hepatic fibrosis development in NASH animal model (CDAA diet-loaded rat), repeated oral administration for 10 weeks; assay type: in vivo, F344 rats; conditions: for Sirius red positive areas (%) (mean ± S.E.): primary endpoint; for Fibrosis development score (mean ± S.E.): score 0-4 (Table 3), secondary endpoint
Source text: Some heads of F344 rats (5-week-old, body weight 67.5 to 87.5 g, purchased from Japan SLC, Inc.) were housed (for quarantine inspection and acclimatization) for 15 days while receiving a normal diet, and were then used as a test animal. The rats were divided into six treatment groups by stratified random allocation using body weight as a randomization factor (each 10 heads of the rats per group). The test compounds (that is, the compound (I) or eplerenone) were suspended into 0.5% aqueous carmellose sodium solution containing a vehicle (0.1% polyoxyethylene hydrogenated castor oil (HCO-60, manufactured by Nikko Chemicals Co., Ltd.)), and the resultant suspensions were used (10 mL/kg). The rats were loaded with a CDAA diet (choline deficient L-amino acid defined diet), and simultaneously with the loading, were received with a repeated oral administration of the above-mentioned compound (I) (1 mg/kg, 3 mg/kg, and 10 mg/kg) at once per day for 10 weeks (hereinafter, which is referred to as “Compound (I)-treated group”). Also, the rats that were loaded with the CDAA diet and were received with the administration of the above-mentioned vehicle (10 mL/kg) were assigned to “disease control group”, and also the rats that were loaded with the CSAA diet and were received with the administration of the above-mentioned vehicle (10 mL/kg) were assigned to “normal control group”. While, “positive control group” rats were loaded with the CDAA diet and were received with a repeated oral administration of eplerenone (100 mg/kg) at once per day for 10 weeks.
After the administration, the test tissues were sampled from lamella of the extracted liver, and the pathological specimens were constructed. Each effect of the respective test compound on NASH was examined using the Sirius red positive areas of the specimens as a primary endpoint. Also the fibrosis development scores of hepatic pathological specimens in each group were examined as the secondary endpoint.

[2] = biological target: CYP3A4 (cytochrome P450 3A4) (Homo sapiens, UniProt P08684); conditions: Non-Patent documents 12 and 13; cited from earlier work
Sequence of CYP3A4 (cytochrome P450 3A4) (P08684 whole entry): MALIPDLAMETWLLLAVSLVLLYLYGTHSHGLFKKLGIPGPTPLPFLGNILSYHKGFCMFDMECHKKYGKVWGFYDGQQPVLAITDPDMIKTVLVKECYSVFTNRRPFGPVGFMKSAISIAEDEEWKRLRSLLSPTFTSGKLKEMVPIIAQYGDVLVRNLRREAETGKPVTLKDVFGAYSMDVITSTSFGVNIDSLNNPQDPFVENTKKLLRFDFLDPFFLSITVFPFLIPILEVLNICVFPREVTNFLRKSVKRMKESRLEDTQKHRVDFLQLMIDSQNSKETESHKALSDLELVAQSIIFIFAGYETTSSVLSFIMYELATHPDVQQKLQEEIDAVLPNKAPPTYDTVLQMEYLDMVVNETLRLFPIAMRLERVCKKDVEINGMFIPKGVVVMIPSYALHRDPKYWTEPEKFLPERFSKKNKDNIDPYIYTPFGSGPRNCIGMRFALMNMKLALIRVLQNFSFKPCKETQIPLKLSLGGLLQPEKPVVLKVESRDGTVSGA

[3] = background statement; cited from earlier work
[4] = CDAA diet-loaded rats, 1 mg/kg oral once per day for 10 weeks
[5] = CDAA diet-loaded rats, 3 mg/kg oral once per day for 10 weeks
[6] = CDAA diet-loaded rats, 10 mg/kg oral once per day for 10 weeks
[7] = CDAA diet-loaded rats, 100 mg/kg oral once per day for 10 weeks

Row | SMILES | Main metabolic pathway [1] | Sirius red positive areas as compared with disease control group (CDAA diet-loaded rats; 1 mg/kg, 3 mg/kg and 10 mg/kg-treated groups, all) | Fibrosis development scores as compared with disease control group (CDAA diet-loaded rats; 3 mg/kg-treated group and 10 mg/kg-treated group) | Sirius red positive areas (%) (mean ± S.E.) (CDAA diet-loaded rats; [4]) | Fibrosis development score (mean ± S.E.) (CDAA diet-loaded rats; [4]) | Sirius red positive areas (%) (mean ± S.E.) (CDAA diet-loaded rats; [5]) | Fibrosis development score (mean ± S.E.) (CDAA diet-loaded rats; [5]) | Sirius red positive areas (%) (mean ± S.E.) (CDAA diet-loaded rats; [6]) | Fibrosis development score (mean ± S.E.) (CDAA diet-loaded rats; [6]) | Progression of fibrosis development of liver (CDAA diet-loaded rats; CDAA diet-loaded rats, overall conclusion) | Sirius red positive area value at the lowest dose in comparison with eplerenone at a higher dose (CDAA diet-loaded rats; compound (I) lowest dose (1 mg/kg) vs eplerenone 100 mg/kg) | Metabolizing enzyme [2] | Half-life in blood [3] | Fibrosis development scores as compared with disease control group (CDAA diet-loaded rats; 100 mg/kg, positive control group) | Sirius red positive areas (%) (mean ± S.E.) (CDAA diet-loaded rats; [7]) | Fibrosis development score (mean ± S.E.) (CDAA diet-loaded rats; [7])
1 | CC1(C)Oc2cc(NS(C)(=O)=O)ccc2N(c2ccc(F)cc2)C1=O [Compound (I)] | glucuronide conjugation by UGT enzymes | significantly lower | significantly lower value | 4.0 ± 0.3 | 3.0 ± 0.0 | 3.6 ± 0.4 | 2.7 ± 0.2 | 1.8 ± 0.2 | 2.2 ± 0.1 | significantly inhibit | significantly lower area value | – | – | – | – | –
2 | COC(=O)[C@@H]1CC2=CC(=O)CC[C@]2(C)[C@@]23O[C@@H]2C[C@@]2(C)[C@@H](CC[C@@]24CCC(=O)O4)[C@H]13 [Eplerenone, eplerenone, reference compound] | – | – | – | – | – | – | – | – | – | – | – | metabolized mainly by CYP3A4 | short half-life | not significantly different | 2.8 ± 0.2 | 3.0 ± 0.0
